Assay results reported in ChEMBL document CHEMBL1132116, “Abasic site recognition in DNA as a new strategy to potentiate the action of anticancer alkylating drugs?” (1999).

Columns and labels:
Mus musculus [1] = species: Mus musculus; test: Rate of survival of treated Mice to survival of controls * 100; type: functional
Mus musculus [2] = test: Number of surviving Mice in the presence (N,N''-bis(2-chloroethyl)-N-nitrosourea) of BCNU after 60 days of administration of the compound; Survivals= 6/6; type: functional
Mus musculus [3] = test: Number of surviving Mice after 60 days of administration of the compound; Survivals= 0/6; type: functional
P388 = test: Inhibitory activity against P388 murine leukemia at 2 mg/kg concentration; type: functional, Mus musculus

COc1ccc2nc3cc(Cl)ccc3c(NCCCN(CCCN(CCn3cnc4c(N)ncnc43)C(=N)N)C(=N)N)c2c1
T/C (Mus musculus [1]): 109
Survival (Mus musculus [2]): 6
Survival (Mus musculus [3]): 0
Survival (P388): 16.2 days
